These results are taken from patent US9512178B2, “Neurogenic brain-derived neurotrophic factor peptides” (Research Foundation for Mental Hygiene, Inc., priority 2012, dated 2016).

Entries after “also recorded” stand apart in the source; their conditions may differ.

The subject of test [1] is E18 primary hippocampal neurons. Kind of test: Western blots of neuronal markers, densitometry. In kind it is cell-based, mouse. The following applies: 5 days. The procedure: (§1) Following treatment in 6-well plates, cells were washed 2× in glucose buffered saline, GBS (5.4 mM KCl, 138 mM NaCl, 22 mM glucose, and 2 mM Na—KPO pH 7.2), and then lysed by 5 min incubation on ice in 100 or 150 μl of ice-cold RIPA buffer (PBS, 1% w/v NP-40 from Fisher Scientific, 0.1% w/v SDS, and 0.5% w/v sodium desoxycholate) containing 1 mM AEBSF (Gold Biotechnology, St. Louis, Mo., USA), 10 μg/ml aprotinin (Sigma-Aldrich, St. Louis, Mo., USA), and 20 μg/ml of leupeptin and pepstatin (US Biochemicals, Cleveland, Ohio, USA), and phosphatase inhibitors: NaF, Na orthovanadate, (3-glycerophosphate, and microcystein (Sigma-Aldrich, St. Louis, Mo., USA). Extracts were prepared by collecting and pooling a minimum of 2 wells by scraping, and lysates were centrifuged at 20,000×g for 10 min at 4° C. Protein concentration of each cell lysate was determined using the BCA kit (Thermo Scientific, Rockford, Ill., USA). The lysates (7.5-20 μg total protein) were separated on 10% SDS-PAGE gels (except for BDNF where 12% gels were employed) and transferred to 0.45 μm PVDF membrane (Pall, Pensacola, Fla., USA) for probing with antibodies as noted. Blots were blocked for 1 hr at 37° C. in 1×TBST (0.05% Tween 20 in TBS) containing 5% w/v blotting grade dry milk (Bio-rad, Hercules, Calif., USA), incubated in primary antibody overnight in blocking buffer at 4° C., washed 3×10 min in TBST at room temperature, followed by incubation with secondary antibody, i.e., peroxidase-conjugated anti-mouse or anti rabbit IgG (Jackson ImmunoResearch Laboratories, West Grove, Pa., USA) diluted in blocking buffer. Blots were washed 3×10 min in TBST and immunoreactive protein bands were visualized with enhanced chemiluminescence (ECL) reagents (Pierce, Rockford, Ill., USA). The ECL films of the blots were scanned and analyzed using Multi Gauge software version 3.0 (Fujifilm, Tokyo, Japan).
(§2) The following primary antibodies were used: rabbit polyclonal anti-NFM (1:1000; Chemicon/Millipore, Billerica, Mass., USA); mouse monoclonal anti-NeuN, clone A60 (1:500; Millipore, Billerica, Mass., USA); rabbit polyclonal anti-Tuj-1, (3—III-tubulin (Covance; 1:800, Emeryville, Calif., USA); mouse monoclonal SMI 52 to the adult isoforms of MAP-2, MAP2a,b (1:1000; Covance, Emeryvilly, Calif., USA); rabbit polyclonal anti-Synapsin I (1:2000; Stressgen, Farmingdale, N.Y., USA); rabbit monoclonal anti-PSD95 (1:1000; Cell signaling, Danvers, Mass., USA); anti tau 92e (1:10000); mouse monoclonal anti-BDNF (1:1000; Calbiochem, Gibbstown, N.J., USA); rabbit polyclonal anti-TrkB (total) (1:500; Santa Cruz Biotechnology, Santa Cruz, Calif., USA); rabbit polyclonal anti-pTrkB (Tyr706) (1:400; Santa Cruz Biotechnology, Santa Cruz, Calif., USA), TrkC (1:1000; Cruz Biotechnology, Santa Cruz, Calif., USA); and pTrkY490 (1:500; Upstate USA Inc., Charlottesville, Va., USA). For loading control, the blots were developed with rabbit polyclonal antibody to GAPDH (1:2000; Santa Cruz Biotechnology, Santa Cruz, Calif., USA).
To biochemically study the effect of BDNF peptides in inducing expression of neuronal markers, protein samples were recovered from cells treated with peptides B-5, B-4, B-3, or vehicle for five days. As a positive control, protein samples were collected from cells treated with BDNF at 20 ng/ml (0.79 nM) or 100 ng/ml (3.95 nM) (FIG. 3D, E). Western blots of the cell lysates were developed with antibodies to Synapsin I (presynaptic marker), PSD95 (postsynaptic marker), NeuN (late neuronal marker), NFM (early neuronal marker), MAP2 (dendritic marker), 0-IIItubulin (early neuronal marker), and tau 92e (axonal marker).

The subject of test [2] is primary E18 hippocampal cells. Nature of the test: Rescue of H2O2-induced neurotoxicity (LDH assay). In kind it is cell-based, mouse. The procedure: Evaluation of cell death and cell viability was performed using the LDH kit (Promega, Madison Wis., USA), following manufactures instructions. Percentages of cell death and cell viability were plotted separately.
In order to evaluate the potential neuroprotective effect of BDNF peptides, the primary E18 hippocampal cells were challenged with 0, 60, 80 and 100 μM H2O2 for 6 hours, and then cells were washed with culture medium and fresh culture medium was added containing the peptides B-5 or B-3 or BDNF or BDNF plus B-3 (see FIGS. 4A and 4B). After 24 hours, the cell viability was assayed by the LDH method.

In a further test the target is T1, TrkC (Homo sapiens, UniProt Q16288).
T1 construct: expressed in transfected cells; host or cells: NIH-3T3 fibroblasts
T1 sequence (Q16288 32-839, species assumed): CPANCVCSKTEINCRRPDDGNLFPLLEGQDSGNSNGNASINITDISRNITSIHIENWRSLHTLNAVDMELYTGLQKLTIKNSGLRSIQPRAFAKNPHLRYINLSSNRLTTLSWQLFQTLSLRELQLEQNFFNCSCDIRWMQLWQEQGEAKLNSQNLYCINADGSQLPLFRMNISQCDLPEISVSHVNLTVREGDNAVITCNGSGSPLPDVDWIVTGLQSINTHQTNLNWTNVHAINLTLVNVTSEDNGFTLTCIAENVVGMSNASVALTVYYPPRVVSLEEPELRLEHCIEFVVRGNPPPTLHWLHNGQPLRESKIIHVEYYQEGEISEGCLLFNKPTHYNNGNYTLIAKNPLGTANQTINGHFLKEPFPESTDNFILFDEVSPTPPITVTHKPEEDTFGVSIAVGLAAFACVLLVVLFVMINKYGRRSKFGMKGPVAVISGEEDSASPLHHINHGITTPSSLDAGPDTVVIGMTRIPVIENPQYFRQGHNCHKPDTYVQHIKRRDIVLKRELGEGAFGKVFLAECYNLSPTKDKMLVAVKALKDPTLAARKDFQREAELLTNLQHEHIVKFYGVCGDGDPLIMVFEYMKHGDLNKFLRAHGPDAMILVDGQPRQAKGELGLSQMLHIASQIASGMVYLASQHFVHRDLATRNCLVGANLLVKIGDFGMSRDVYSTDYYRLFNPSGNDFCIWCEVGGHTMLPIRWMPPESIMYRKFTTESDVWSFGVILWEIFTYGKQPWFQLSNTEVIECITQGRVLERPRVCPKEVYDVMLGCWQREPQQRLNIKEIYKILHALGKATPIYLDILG
Kind of test: Trk phosphorylation and TrkC expression in TrkC stably-expressing NIH-3T3 cells. The following applies: for expression of TrkC: 1 μM; for activation of TrkC receptor: peptides 1 μM. In kind it is cell-based.

The test system of the next test is BDNF. Nature of the test: BDNF expression, Western blot, 5 days treatment. The class given is cell-based, mouse. The procedure: as §1, §2
To investigate the molecular mechanism by which the BDNF peptides promoted neurogenic/neurotrophic activities, the hippocampal primary cultured neurons were treated with the peptides or BDNF for five days and compared with the control medium treated cells.
On the technique in general: Immunoblotting shows a protein as a band on a membrane.

Where [3] appears, read: 80 μM H2O2 6 h, then treatment 24 h.

Regarding Ac-I-K-R-G-CONH2 [Peptide B-5], in test [1] (0.1 μM), the “MAP2 expression (Western blot)” value is “increased significantly” and the “NFM expression (Western blot)” value is reported as “increased NFM expression”. In addition, in test [1] (1 μM), the “expression of NeuN (Western blot)” value is “increased the expression of NeuN” and the “expression of PSD95 (Western blot)” value is reported as “significant increment”. Moreover, the “levels of 0-IIItubulin (Western blot)” value in test [1] (1 μM, vs vehicle) is “this increase was not significant”. For the same substance, in test [1], the “level of tau (92e antibody, Western blot)” value is on record as “Neither BNDF nor peptides B-3, B-4 or B-5 had any significant effect”. In addition, the “cell viability (LDH)” value in test [2] (60 μM H2O2 6 h, then treatment 24 h) was “significantly increased the cell viability”. Besides, in test [2] (setting [3]), the “cell death (LDH)” value is reported as “significantly reduced cell death; also recorded: moderate effect in reducing the percentage of cell death” and the “cell viability (LDH)” value is listed as “significantly increased the cell viability”. In the test with TrkC, the “expression of TrkC” value was “neither BDNF (20 ng/mL) nor peptides B-5 (1 μM) and B-3 (1 μM) were able to modify the expression of TrkC”; the “activation of TrkC receptor” value was “neither the peptides nor BDNF were able to activate this receptor”. Moreover, in the test with BDNF (0.1 μM), the “expression of BDNF (Western blot)” value was “strongest induction”. For the same substance, the “expression of BDNF (Western blot)” value in the test on BDNF (1 μM) is “lost”. The “expression of BDNF (Western blot)” value in the test on BDNF (vs control medium) is reported as “induced the expression of BDNF”.

As to Ac-S-KKR-CONH2 [Peptide B-3], the “expression of NeuN (Western blot)” value in test [1] (0.1 μM) and in test [1] (1 μM) was “increased the expression of NeuN” each time. The “level of tau (92e antibody, Western blot)” value in test [1] is “Neither BNDF nor peptides B-3, B-4 or B-5 had any significant effect”. Further, the “potentiation of the neuroprotective effect of BDNF” value in test [2] (after H2O2 exposure, combined with BDNF) was “significantly potentiated; also recorded: potentiates the neuroprotective effect of BDNF”. Moreover, in test [2] (after H2O2 exposure, without BDNF), the “neuroprotective effect of the peptide alone” value is “not sufficient to exert a significant effect”. In addition, at TrkC, the “expression of TrkC” value is “neither BDNF (20 ng/mL) nor peptides B-5 (1 μM) and B-3 (1 μM) were able to modify the expression of TrkC”. The “activation of TrkC receptor” value at TrkC is listed as “neither the peptides nor BDNF were able to activate this receptor”. For the same substance, the “expression of BDNF (Western blot)” value is “not at 0.1 μM” in the test with BDNF (0.1 μM), “induced an increase” with BDNF (1 μM) and “induced the expression of BDNF” in the test on BDNF (vs control medium).
